One data set relates to HEC-1A monolayer. The experiment in a line: Darunavir transfer across low-pH-adapted HEC-1A monolayers at apical pH 7.5 or 5.5 (LC-MS/MS). In kind it is in vitro ADME, human. Particulars: MK571 (50 µM) in donor compartment; apical pH 5.5.
Data set [1] relates to HEC-1A cell layers.
Description: (§5) All transport experiments were undertaken over a 2-h period (unless stated) at 37 °C in HBSS supplemented with 1% HEPES buffer (Sigma-Aldrich) at pH 7.4 as reported [22]. HBSS was used to prevent the drug from binding to albumin present in cell culture media. All solutions were warmed to 37 °C and experiments were performed on a heated orbital shaker set at 50 RPM. […] Prior to the initiation of the drug transport experiments, TEER was measured. Cell layers were then washed twice with pre-warmed HBSS+1%HEPES transport buffer and equilibrated in the same solution for 30 min at 37 °C. […] The experiment was initiated when either the donor or receiver solutions were added to the respective compartments. Following the addition of donor solution, 20 µL samples were taken immediately from donor and receiver compartments, T = 0 (for assessment of initial concentration and background radioactivity, respectively). Transwells® were then placed on an orbital shaker set at 50 RPM. Samples, either 200 µL (apical) or 600 µL (basolateral), were taken from the receiver compartments at time points T = 30, T = 60, T = 90 and T = 120 and added to polyethylene liquid scintillation vials. Samples were taken in triplicate and replaced with equivalent volumes of the receiver solution. After final sampling, TEER was measured to confirm that there was no disruption to the epithelial barrier during the experimental procedure. Radioactive samples were mixed with 4 mL of scintillation fluid (Fisher Scientific, Waltham, MA, USA) and analysed using a liquid scintillation counter (Beckman Coulter, Brea, CA, USA). The semipermeable membranes of the Transwell® inserts were cut and also placed into scintillation vials for mass balance measurements.
The nature of another data set: in vitro. Particulars: human, pH 7.4.
Data set [2] is described as follows: Bi-directional permeability (Papp) across HEC-1A dual chamber (Transwell) barrier model. In kind it is in vitro ADME. The following applies: human. As for the experimental part: The apical chambers of 12-well polycarbonate and polyester systems (Corning Costar Corp, Cambridge, UK) were seeded with different densities of HEC-1A cells in 500 µL of the medium while 1500 µL culture medium was added to the basolateral chamber. -Medium in both chambers was changed every 48–72 h.

The next data set concerns HEC-1A barrier model. The experiment in a line: Permeability of labelled drug across HEC-1A model on coadministration with a second ARV. In kind it is in vitro ADME, human. Particulars: labelled drug 10 µM.
Data set [3] has as its system HEC-1A cell layers. The experiment in a line: Permeability across HEC-1A cell layers stimulated with poly(I:C). The following applies: p > 0.05, ANOVA.
Description: as §5
The test system of data set [4] is HEC-1A cells. The experiment in a line: Cell-associated drug and distribution between apical and basolateral compartments after absorptive permeability assay.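 Also: transwell transport run over 2 h at 37 °C, radiolabelled drug quantified by liquid scintillation counting, with insert membranes also counted for mass balance.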 Type of data set: in vitro ADME, human.
Description: as §5
In data set [5] the test system is drug transporter mRNA expression in HEC-1A cells. The experiment in a line: Drug transporter mRNA expression (RT-qPCR) in stimulated HEC-1A cells. In kind it is cell-based, human. The following applies: for Change in expression of drug transporters (panel of 17): 72 h stimulation. The procedure:
(§1) Control was 0.1% DMSO with no drug. Cytokines were reconstituted in sterile and distilled water and added individually to cell cultures at the following concentrations: TNF-α (200 pg/mL), IL-1β (8 ng/mL), IL-6 (5 ng/mL) and IL-8 (100 ng/mL) were. […] Cells were stimulated for either drugs, cytokines or hormones for 72 h, before harvesting by centrifugation at 300× g for 10 min at 4 °C. For Lactobacillus crispatus a final MoI of 10 was used (10:1, bacterial cells:mammalian cell ratio) for co-culture in both HEC-1A and VK2/E6E7 cell lines. For Candida albicans, a final MoI of 1 for HEC-1A cells and 0.25 for VK2/E6E7 cells was used. Cells were incubated with fungal cells at 37 °C/5% CO2 for 24 h. All cell line stimulation experiments were conducted as a minimum of three biological repeats.
(§2) RNA extraction was performed using the RNeasy® Mini Kit (Qiagen, Manchester, UK). Cells were lysed by suspension in 600 μL of RLT Buffer with 1% β-mercaptoethanol (Sigma-Aldrich) and mechanical lysis into a QIAshredder (Qiagen). After the addition of 70% ethanol, the solution was loaded onto RNeasy columns for RNA purification as per the manufacturer’s instructions. DNase treatment was 15 min at room temperature. RNA was eluted from the columns with 30 μL of RNase-free ddH2O. Tapestation analysis was performed using an Agilent 2200 Tapestation system to determine the integrity of the RNA.
(§3) Synthesis of cDNA was performed using a Superscript® VILO™ kit (Life Technologies, Paisley, UK). Reverse transcription was performed at 25 °C for 10 min, 42 °C for 60 min and 85 °C for 5 min. The cDNA was then stored at −20 °C until RT-PCR assays.
(§4) SYBRgreen® PrecisionTM 2× qPCR Mastermix with ROX quencher (Primer Design, Southampton, UK) was used for all RT-qPCR assays. Individual primers were designed to target the HPRT1 and RPLP0 housekeeper genes (selected from an initial panel based on SD scores as a measure of the consistency of expression amongst all samples) in addition to seventeen ARV-associated drug transporters (9 ABC transporters and 8 SLC transporters) replicating the system contained in the TaqMan® 96-well Drug Transporter Array system (Life Technologies, Paisley, UK). Real-time quantitative PCR was performed using the 7900HT Fast Real-Time PCR system and data was analysed using the SDS 2.4 software (Applied Biosystems, Waltham, MA, USA). Cycling conditions were: 95 °C for 5 min, followed by 40 cycles of denaturation at 95 °C for 10 s, annealing at 60 °C for 10 s and extension at 72 °C for 10 s. Relative transcript levels in drug-stimulated cells were determined using the comparative Ct method (ΔΔCt method). Fold-change values of ±2–3 were considered minor, ±3–5 as moderate and >±5 as high.

For data set [6], the system named is drug transporter mRNA expression in VK2/E6E7 cells. The experiment in a line: Drug transporter mRNA expression (RT-qPCR) in stimulated VK2/E6E7 cells. Type of data set: cell-based, human. Particulars: for Expression of uptake transporters OATP8 and CNT3 / P-gp mRNA level: 72 h cytokine stimulation. The procedure:
as §1, §2, §3, §4

In a further data set the test system is VK2/E6E7 cells. The experiment in a line: Intracellular accumulation of digoxin in cytokine-stimulated VK2/E6E7 cells. The following applies: 5 µM digoxin, 1 h; after cytokine stimulation. In kind it is cell-based, human. As for the experimental part: A 500 μL sample from each well was stored and the remainder of the buffer was aspirated from the plates. The wells were then washed twice with ice-cold PBS to stop any further uptake of the drug. To each well, 500 μL of ddH2O was added and cells were removed using a cell scraper. The cell suspension was then transferred to individual tubes for mechanical cell lysis using a 21-gauge needle followed by a freeze-thaw cycle at -80 °C. Protein content for normalisation calculations was measured via a bicinchoninic acid assay. The solution was then centrifuged at 14,000× g for 15 min and the supernatants were stored at -80 °C until analysis by LC-MS/MS. Samples were centrifuged at 14,800 rpm for 5 min to remove cell debris. […] Analysis was performed on a Thermo Surveyor TSQ Quantum system using electrospray ionisation in positive ion mode. Samples (5 μL) were applied to a C18 column (Gemini 3μ, 150 × 3.0 mm, Phenomenex, Macclesfield, UK) maintained at 40 °C. […] The flow rate for both methods was 350 μL/min. […] Cytokines were reconstituted in sterile and distilled water and added individually to cell cultures at the following concentrations: TNF-α (200 pg/mL), IL-1β (8 ng/mL), IL-6 (5 ng/mL) and IL-8 (100 ng/mL) were. […] Cells were stimulated for either drugs, cytokines or hormones for 72 h, before harvesting by centrifugation at 300× g for 10 min at 4 °C. […] All cell line stimulation experiments were conducted as a minimum of three biological repeats.

Data set [7] relates to HEC-1A cells. The experiment in a line: Cytokine production of HEC-1A cells stimulated with PAMPs (Luminex). Type of data set: cell-based, human. The following applies: for Pro-inflammatory cytokine production: 24 h stimulation. The procedure:
HEC-1A cells were stimulated with different PAMPs (pam 3CSK4, lipoteichoic acid, poly(I:C), Escherichia coli lipopolysaccharide, FSL-1, flagellin, imiquimod, zymosan) (InvivoGen, San Diego, CA, USA) diluted in cell culture media with incubation at 37 °C in 5% CO2 for 24 h. PAMPs were titrated to determine the optimal concentration for cytokine stimulation. Blank samples contained media only. After 24 h, the supernatant was collected for cytokine detection. Cytokine levels were determined using a Magnetic Luminex® Performance Assay kit (R&D Systems, Minneapolis, MN, USA) following the manufacturer’s instructions. Analyte-specific antibodies were pre-coated onto colour-coded microparticles and detection was carried out with a biotinylated antibody cocktail specific to the target cytokines and a streptavidin-phycoerythrin conjugate. Samples were resuspended in 100 µL of Washing Buffer and measured for a phycoerythrin-derived signal using a Luminex® 100 instrument.

Setting [8] is: 72 h hormone stimulation, vs ethanol control, increased.

Like-named read-outs stand apart in the source and are kept apart here. Bounds are passed on as bounds.

Description for HEC-1A barrier model: All transport experiments were undertaken over a 2-h period (unless stated) at 37 °C in HBSS supplemented with 1% HEPES buffer (Sigma-Aldrich) at pH 7.4 as reported [22]. HBSS was used to prevent the drug from binding to albumin present in cell culture media. All solutions were warmed to 37 °C and experiments were performed on a heated orbital shaker set at 50 RPM. […] Prior to the initiation of the drug transport experiments, TEER was measured. Cell layers were then washed twice with pre-warmed HBSS+1%HEPES transport buffer and equilibrated in the same solution for 30 min at 37 °C. […] The experiment was initiated when either the donor or receiver solutions were added to the respective compartments. Following the addition of donor solution, 20 µL samples were taken immediately from donor and receiver compartments, T = 0 (for assessment of initial concentration and background radioactivity, respectively). Transwells® were then placed on an orbital shaker set at 50 RPM. […] After final sampling, TEER was measured to confirm that there was no disruption to the epithelial barrier during the experimental procedure. Radioactive samples were mixed with 4 mL of scintillation fluid (Fisher Scientific, Waltham, MA, USA) and analysed using a liquid scintillation counter (Beckman Coulter, Brea, CA, USA). […]
Description for HEC-1A monolayer: Cell lines were from American Type Culture Collection (ATCC, Manassas, VA, USA).
Samples were centrifuged at 14,800 rpm for 5 min to remove cell debris. […] Analysis was performed on a Thermo Surveyor TSQ Quantum system using electrospray ionisation in positive ion mode. Samples (5 μL) were applied to a C18 column (Gemini 3μ, 150 × 3.0 mm, Phenomenex, Macclesfield, UK) maintained at 40 °C. […] Digoxin and digitoxigenin were resolved using gradient elution with a mobile phase consisting of A: 30 mM ammonium formate, pH 3.4 and B: methanol; 70% B was increased to 100% B over 3 min before returning to initial conditions for 3 min re-equilibration for a total run time of 6 min. The flow rate for both methods was 350 μL/min.
As described above, HEC-1A cells were cultured under conditions that allowed adaptation to lower pH by incremental reduction of pH of the medium from 7.4 to 5.5. […] The pH of the medium in the basal compartment was pH 7.5 for all experiments whereas medium at pH 7.5 or pH 5.5 was added to apical compartments. Non-adapted cell cultures in pH 7.5 medium both in the apical and basal compartments were included as controls.
Description for in vitro: as §5

Consider `CN(C)C(=O)CCSC(SCCC(=O)O)c1cccc(/C=C/c2ccc3ccc(Cl)cc3n2)c1` (stereo not shown) [MK571], for which the “Effect on absorptive transfer of darunavir” value in the data set with HEC-1A monolayer is reported as “reduced the absorptive transfer of darunavir to the level observed at pH 7.5”.

Regarding `OC[C@@H](O)[C@@H](O)[C@H](O)[C@H](O)CO` [mannitol], in the data set on HEC-1A cell layers [1], the Papp was in the range of 2.23 to 2.47 ×10⁻⁶ cm/s. Besides, in the data set “in vitro”, the Papp at 2 h, 10 µM was in the range of 1.43 to 2.17 ×10⁻⁶ cm/s. Besides, the Papp A→B at 2 h in data set [2] (pH 7.4, Absorptive Papp of mannitol, 1% DMSO in donor compartment (initial dapivirine assay)) was in the range of 2.5 to 2.61 ×10⁻⁶ cm/s; in [2] (pH 7.4, Absorptive Papp of mannitol, paracellular marker in the tenofovir permeability assay), 2.09 to 3.1 ×10⁻⁶ cm/s. Moreover, the Papp B→A at 2 h in [2] (pH 7.4, Secretory Papp of mannitol, 1% DMSO in donor compartment (initial dapivirine assay)) lay within 5.1 to 6.81 ×10⁻⁶ cm/s; in data set [2] (pH 7.4, Secretory Papp of mannitol, paracellular marker in the tenofovir permeability assay), 2.7 to 2.85 ×10⁻⁶ cm/s. The Papp at 2 h in [2] (pH 7.4, mannitol measured simultaneously in drug permeability assays, read-out: Papp (barrier integrity control)) is below 4 ×10⁻⁶ cm/s.

`C[C@H](Cn1cnc2c(N)ncnc21)OCP(=O)(O)O` [tenofovir, Tenofovir] came in with a Papp in the data set with HEC-1A cell layers [1] of 1.45 ± 0.21 ×10⁻⁶ cm/s. In the data set on HEC-1A barrier model (dapivirine 0–10 µM), the “Absorptive permeability on coadministration with dapivirine” value is “not altered”. For the same molecule, the “Absorptive or secretory permeability on coadministration with darunavir” value with HEC-1A barrier model (darunavir 0–10 µM) is “did not significantly alter”. This molecule also yielded a Papp at 2 h, 10 µM in “in vitro” of 1.06 ± 0.05 ×10⁻⁶ cm/s. For the same molecule, the Papp A→B at 2 h in [2] (pH 7.4, apical to basolateral, over concentration range (tenofovir 0.1–100 µM; darunavir 0.1–20 µM, 0.01% DMSO), read-out: Absorptive permeability Papp) is 1.76 to 2.06 ×10⁻⁶ cm/s. In addition, the Papp B→A at 2 h in data set [2] (pH 7.4, basolateral to apical, over concentration range (tenofovir 0.1–100 µM; darunavir 0.1–20 µM, 0.01% DMSO), read-out: Secretory permeability Papp) fell in the range of 1.46 to 1.64 ×10⁻⁶ cm/s. For the same molecule, the efflux ratio at 2 h in data set [2] (pH 7.4, over concentration range tested, read-out: Efflux ratio (secretory/absorptive)) was 0.77 to 0.83. Further, the “Difference in Papp (A-B or B-A), poly(I:C)-stimulated vs unstimulated cell layers” value in the data set with HEC-1A cell layers [3] is “no significant differences”. Further, the “% Drug Distribution Apical” value turned out to be 97.03 ± 0.28% in the data set with HEC-1A cells [4] (0.1 μM), 96.85 ± 0.29% in the data set with HEC-1A cells [4] (1 μM), 96.91 ± 0.27% with HEC-1A cells [4] (10 μM) and 96.59 ± 0.41% in the data set on HEC-1A cells [4] (100 μM). Besides, the “% Drug Distribution Basolateral” value was determined as 2.63 ± 0.25% with HEC-1A cells [4] (0.1 μM), 2.73 ± 0.24% with HEC-1A cells [4] (1 μM), 2.79 ± 0.25% in the data set with HEC-1A cells [4] (10 μM) and 2.99 ± 0.36% in the data set with HEC-1A cells [4] (100 μM). Moreover, the “% Drug Distribution Cell-Associated” value in the data set with HEC-1A cells [4] (0.1 μM) came out at 0.34 ± 0.06%; with HEC-1A cells [4] (1 μM) it was 0.42 ± 0.08%; with HEC-1A cells [4] (10 μM), 0.3 ± 0.06%; in the data set with HEC-1A cells [4] (100 μM) it was 0.42 ± 0.17%. Further, in the data set with HEC-1A cells [4] (% of initial concentration, no Poloxamer), the “Recovery from the apical compartment after absorptive permeability assays” value is listed as 96–97%. The “Cell-associated drug (HEC-1A cells)” value in the data set on HEC-1A cells [4] (after absorptive permeability assays) was at most 0.5%.

With `C[C@]12CC[C@@H]3c4ccc(O)cc4CC[C@H]3[C@@H]1CC[C@@H]2O` [β-estradiol], the “BCRP mRNA expression, fold-change” value in data set [5] (setting [8]) is recorded as 2.64 ± 0.44 fold. Besides, in [6] (setting [8]), the “CNT3 mRNA expression, fold-change” value was 3.70 ± 1.43 fold and the “MRP3 mRNA expression, fold-change” value is recorded as 2.14 ± 0.30 fold.

As for IL-1β: pro-inflammatory cytokine, the “Effect on intracellular uptake of digoxin” value (from here on “Effect … of digoxin”) in the data set on VK2/E6E7 cells is “significantly reduced”. For the same molecule, in [5], the “Change in expression of drug transporters (panel of 17)” value (“Change in expression” below) is “No changes”. Besides, in data set [6], the “Expression of uptake transporters OATP8 and CNT3” value was “induce the expression”; the “P-gp mRNA level” value is on record as “increased”.

Consider IL-6: pro-inflammatory cytokine, for which the “Effect … of digoxin” value in the data set on VK2/E6E7 cells is reported as “not”. Besides, the “Change in expression” value in data set [5] is on record as “No changes”. In addition, in [6], the “Expression of uptake transporters OATP8 and CNT3” value is listed as “induce the expression”; the “P-gp mRNA level” value is “increased”.

As for IL-8: pro-inflammatory cytokine, the “Change in expression” value in data set [5] is “No changes”.

Turning to TNF-α, in the data set with VK2/E6E7 cells, the “Effect … of digoxin” value is “significantly reduced”. The “Change in expression” value in data set [5] is recorded as “No changes”. In [6], the “Expression of uptake transporters OATP8 and CNT3” value is listed as “induce the expression”; the “P-gp mRNA level” value is “increased”.

Turning to flagellin, the Pro-inflammatory cytokine production result in the data set with HEC-1A cells [7] is “stimulated production of IL-8, GM-CSF and TNF-α”.

With poly(I:C), the Pro-inflammatory cytokine production result in the data set with HEC-1A cells [7] is “induced production of IL-6, IL-8, IL-1α, GM-CSF and TNF-α”. The “Optimum concentration for cytokine stimulation” value in the data set on HEC-1A cells [7] (titration 1–50 µg/ml) was found to be 25 µg/mL.

(Values after PMC9504208, “Comprehensive Study of Antiretroviral Drug Permeability at the Cervicovaginal Mucosa via an In Vitro Model” (Pharmaceutics, 2022).)
